Some test systems named below: HOP-62 NSCLC; IGROV1 ovarian; HCT-116 colon; HCC-2998 colon; NCI-H522 lung; M14 melanoma; MDA-MB-231 breast; K-562 leukemia; SK-OV-3 ovarian; A498 renal.
What all share (test): NCI anticancer screen, dose series, 48 h

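Step 1: Grow cells in 96-well plates. Step 2: Expose to compound for 48 hours at 5 concentrations. Step 3: Interpolate endpoints linearly; if unreached, use highest concentration. Here, GI50 denotes the concentration required for 50% inhibition of growth. Definition used: TGI = concentration required for complete inhibition of growth.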 Where only a bound is given, the exact number is not on record here.

On to `COc1cccc(NC(=O)CC(=O)N2N=C(C)C(N=Nc3ccc(C(=O)O)cc3)C2=O)c1` (stereo not given), for which the TGI in the experiment on HOP-62 NSCLC, in the experiment with IGROV1 ovarian, with HCT-116 colon, with HCC-2998 colon, in the experiment with NCI-H522 lung and in the experiment with M14 melanoma was > 100 µM throughout. Moreover, the TGI in the experiment with MDA-MB-231 breast and with K-562 leukemia was > 100 µM throughout.

With `CC(=O)O[C@H]1CCC2[C@@H]3CCC4NC(=O)C(C#N)C[C@]4(C)C3CC[C@@]21C` (stereo not given in full), the TGI in the experiment on HOP-62 NSCLC, in the experiment on IGROV1 ovarian, in the experiment with HCT-116 colon, in the experiment on HCC-2998 colon, in the experiment with M14 melanoma and in the experiment on MDA-MB-231 breast was > 10 µM in each case. Also, the TGI with SK-OV-3 ovarian, in the experiment on A498 renal and with K-562 leukemia was > 10 µM throughout.

As for `CCOC(=O)c1c(N)sc2c1C(C(=O)OCC)CCC2` (stereo not given), the TGI with HOP-62 NSCLC, with IGROV1 ovarian, with HCT-116 colon, in the experiment on HCC-2998 colon, in the experiment on M14 melanoma and in the experiment with MDA-MB-231 breast was > 100 µM throughout. Moreover, the TGI in the experiment with A498 renal and in the experiment on K-562 leukemia was > 100 µM each time.

`NNC(=O)Cn1ccnn1`: the TGI in the experiment with HOP-62 NSCLC, in the experiment with IGROV1 ovarian, in the experiment with HCC-2998 colon, in the experiment with NCI-H522 lung, in the experiment with M14 melanoma and with MDA-MB-231 breast was > 100 µM each time. Moreover, the TGI in the experiment with K-562 leukemia is > 100 µM.

Consider `C[C@]12CCC(=O)C=C1CC[C@@H]1[C@@H]2[C@@H](O)C[C@@]2(C)[C@H]1CC[C@]2(O)C(=O)COC(=O)CCC1CCCC1`, for which the TGI in the experiment on IGROV1 ovarian, in the experiment on HCT-116 colon, with HCC-2998 colon, in the experiment with NCI-H522 lung, with SK-OV-3 ovarian and in the experiment with A498 renal was > 100 µM throughout.

As for `COC(=O)c1cc(C)ccc1C1CN=NC12Cc1c(C)cc(C)cc1C2=O` (stereo not given), the TGI was > 100 µM in the experiment with HOP-62 NSCLC; > 100 µM with IGROV1 ovarian; 28.6 µM with HCT-116 colon; 78.2 µM in the experiment with HCC-2998 colon; 34.5 µM in the experiment with NCI-H522 lung; 41.9 µM with M14 melanoma. The TGI with MDA-MB-231 breast was 65.7 µM; in the experiment on SK-OV-3 ovarian, 69 µM; with K-562 leukemia, > 100 µM.

`O=NN1CCCS1(=O)=O`: the TGI in the experiment with HOP-62 NSCLC, with IGROV1 ovarian, in the experiment on HCT-116 colon, with HCC-2998 colon, in the experiment with M14 melanoma and in the experiment with MDA-MB-231 breast was > 100 µM in each case. The TGI in the experiment with SK-OV-3 ovarian, in the experiment on A498 renal and with K-562 leukemia was > 100 µM each time.

In the case of `CCCCCCCCCCCCCCCCCCNC(=O)OCC(CNS(=O)(=O)CCC[n+]1cccc2ccccc21)COC` (stereo not given), the TGI is 38.9 µM with HOP-62 NSCLC; 5.78 µM in the experiment on HCT-116 colon; 25.9 µM in the experiment on M14 melanoma; 4.05 µM in the experiment on MDA-MB-231 breast; > 24.5 µM in the experiment with SK-OV-3 ovarian; 64.9 µM with A498 renal. The TGI with K-562 leukemia is > 100 µM.

Consider `O=c1c(O)cccn1C1OC(CO)C(O)C1O` (stereo not given), for which the TGI with IGROV1 ovarian, in the experiment with HCT-116 colon, in the experiment on HCC-2998 colon, with NCI-H522 lung, in the experiment with M14 melanoma and with SK-OV-3 ovarian was > 100 µM each time. In addition, the TGI in the experiment with A498 renal and in the experiment with K-562 leukemia was > 100 µM throughout.

With `Cc1c(C#N)c(=N)oc2ccccc12`, the TGI in the experiment with HOP-62 NSCLC, with IGROV1 ovarian, in the experiment with HCT-116 colon, with HCC-2998 colon, in the experiment with M14 melanoma and in the experiment with MDA-MB-231 breast was > 100 µM in each case. The TGI in the experiment with SK-OV-3 ovarian, in the experiment on A498 renal and in the experiment on K-562 leukemia was > 100 µM throughout.

Consider `Clc1nc2c(C#Cc3ccccc3)ncnc2n1C1CCCCO1` (stereo not given), for which the TGI was > 100 µM in the experiment on HOP-62 NSCLC; 29.2 µM in the experiment with IGROV1 ovarian; 21.7 µM with HCT-116 colon; 28.7 µM in the experiment with HCC-2998 colon; 25.1 µM in the experiment with NCI-H522 lung; 25.9 µM in the experiment with M14 melanoma. Moreover, the TGI is 48.4 µM in the experiment on MDA-MB-231 breast, > 100 µM in the experiment on SK-OV-3 ovarian and > 100 µM in the experiment with K-562 leukemia.

As for `Cc1cn(CCOCCOC(=O)NC(CCCNC(N)=O)C(=O)O)c(=O)[nH]c1=O` (stereo not given), the TGI in the experiment on HOP-62 NSCLC, in the experiment with IGROV1 ovarian, with HCT-116 colon, in the experiment with HCC-2998 colon, with M14 melanoma and with MDA-MB-231 breast was > 100 µM in each case. Also, the TGI in the experiment on SK-OV-3 ovarian and in the experiment on K-562 leukemia was > 100 µM each time.

On to `C[PH+](c1nc2ccccc2nc1[PH+](C)C(C)(C)C)C(C)(C)C.C[PH+](c1nc2ccccc2nc1[PH+](C)C(C)(C)C)C(C)(C)C.[Au+].[Cl-]` (stereo not given), for which the GI50 with HCT-116 colon was 0.0205 µM; in the experiment on HCC-2998 colon it was 0.0296 µM; with M14 melanoma, 0.0386 µM; in the experiment on SK-OV-3 ovarian it was 0.0293 µM; in the experiment with A498 renal, 0.0263 µM. In addition, the TGI in the experiment with HCT-116 colon was 0.0613 µM; in the experiment on HCC-2998 colon it was 0.302 µM; in the experiment with M14 melanoma, 0.31 µM; in the experiment with SK-OV-3 ovarian, 0.117 µM; in the experiment with A498 renal, 0.445 µM.

On to `N#C/C(C(=O)Nc1ccccc1)=C(/N)N1CCCCC1`, for which the TGI in the experiment on HOP-62 NSCLC, with IGROV1 ovarian, in the experiment on HCT-116 colon, with HCC-2998 colon, in the experiment with M14 melanoma and in the experiment with SK-OV-3 ovarian was > 100 µM each time. The TGI in the experiment on K-562 leukemia is > 100 µM.

With `COc1ccc2ccccc2c1CN1CCOCCOCCN(Cc2c(OC)ccc3ccccc23)CCOCCOCC1`, the TGI is > 100 µM in the experiment on HOP-62 NSCLC; > 100 µM with IGROV1 ovarian; > 59 µM in the experiment with HCT-116 colon; 35.3 µM with HCC-2998 colon; > 89.8 µM with NCI-H522 lung; 32.5 µM in the experiment with M14 melanoma. For the same compound, the TGI in the experiment on SK-OV-3 ovarian, in the experiment with A498 renal and in the experiment with K-562 leukemia was > 100 µM each time.

With `Cc1ccc(/C=C2/NC(=S)SC2=O)cc1`, the TGI was > 100 µM in the experiment on HOP-62 NSCLC; > 100 µM in the experiment on IGROV1 ovarian; > 100 µM in the experiment with HCT-116 colon; > 100 µM with HCC-2998 colon; > 100 µM with M14 melanoma; 83.4 µM in the experiment with MDA-MB-231 breast. Further, the TGI in the experiment with SK-OV-3 ovarian was > 100 µM.

Source of the values: PubChem BioAssay (NCI).
